The values below come from US11384096B2, “Substituted azetidine dihydrothienopyridines and their use as phosphodiesterase inhibitors” (UNION therapeutics A/S, priority 2017, dated 2022).

In assay [1] the target is human PDE4D catalytic domain (Homo sapiens (Human), UniProt Q08499). Put plainly: PDE4 Assay (TR-FRET, cAMP cleavage). The class given is biochemical. Particulars: 50% inhibition of substrate cleavage, read-out: PDE4 IC50 range. The protocol: The human PDE4D catalytic domain (UniProt no. Q08499 [[…]]) was incubated with a mixture of non-labelled cAMP (cyclic adenosine monophosphate) and fluorescein amidite (FAM) conjugated cAMP and titrated test or reference compound. Following brief incubation the enzymatic reaction was stopped by addition of binding buffer containing nanoparticles with immobilized trivalent metal ions capable of binding 1) AMP phospho groups and 2) terbium (Tb) donor fluorophores. Subsequent excitation of the Tb donor triggers time-resolved FRET to adjacent FAM acceptor molecules resulting in light emission. In the presence of a PDE4 inhibitor, AMP generation was reduced resulting in a lower fluorescence signal. The cAMP phosphodiester is not bound by the detection system.
human PDE4D catalytic domain, sequence (Q08499 380-740 limits assumed): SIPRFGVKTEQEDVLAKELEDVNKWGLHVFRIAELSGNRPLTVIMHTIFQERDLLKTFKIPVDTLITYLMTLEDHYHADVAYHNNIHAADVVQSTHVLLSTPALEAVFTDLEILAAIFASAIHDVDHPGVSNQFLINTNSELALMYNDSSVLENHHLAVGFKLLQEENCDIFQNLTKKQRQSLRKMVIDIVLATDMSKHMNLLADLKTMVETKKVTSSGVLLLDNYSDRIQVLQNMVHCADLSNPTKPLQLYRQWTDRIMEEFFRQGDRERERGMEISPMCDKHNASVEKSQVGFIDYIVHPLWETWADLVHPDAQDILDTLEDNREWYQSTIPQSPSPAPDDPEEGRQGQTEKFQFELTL
The results were calculated as the molar concentrations resulting in 50% inhibition of the substrate cleavage compared to controls samples, and are expressed as IC50 (nM).

Assay [2] relates to Human peripheral blood mononuclear cells (PBMC), TNF-α release. Kind of assay: TNF-α release in LPS-stimulated PBMC. The class given is cell-based. The conditions noted are these: 30 minutes pre-incubation, stimulated for 18 hours with lipopolysaccharide, read-out: TNF-α IC50 range. As to the method: Human peripheral blood mononuclear cells (PBMC) were isolated from buffy coats. The blood is mixed with saline at a ratio of 1:1, and the PBMC were isolated using Lymphoprep Tubes™ (Nycomed, Norway). The PBMC were suspended in RPMI1640 with 0.5% human serum albumin, pen/strep and 2 mM L-glutamine at a concentration of 5×105 c/ml. The cells were pre-incubated for 30 minutes with the test compounds in 96 well tissue culture plates and stimulated for 18 hours with lipopolysaccharide […] (Sigma). TNF-α concentration in the supernatants was measured using homogeneous time-resolved fluorescence resonance (TR-FRET). The assay is quantified by measuring fluorescence at 665 nm (proportional to TNF-α concentration) and 620 nm (control).
Results were expressed as IC50 values calculated from inhibition curves using as positive controls the secretion in LPS stimulated wells and as negative controls the secretion in unstimulated cells.

On to `[O-][S+]1CCc2nc(N3CC(c4ccc(F)cc4)C3)cc(NC3CCOCC3)c21` (stereo in doubt) [Example 1, (1R)-5-(3-(4-Fluorophenyl)azetidin-1-yl)-7-((tetrahydro-2H-pyran-4-yl)amino)-2,3-dihydrothieno[3,2-b]pyridine 1-oxide], for which the results for the concentration for half-maximal inhibition (IC50) in assay [1] and in assay [2] were 10 to 50 nM and below 10 nM, respectively.
On to `[O-][S+]1CCc2nc(N3CC(Oc4ccc(F)cc4)C3)cc(NC3CCOCC3)c21` (stereo in doubt) [Example 4, (1R)-5-(3-(4-Fluorophenoxy)azetidin-1-yl)-7-((tetrahydro-2H-pyran-4-yl)amino)-2,3-dihydrothieno[3,2-b]pyridine-1-oxide], for which the IC50 in assay [1] and in assay [2] was 10 to 50 nM throughout.
With `COC(=O)N1CCC[C@@H](Nc2cc(N3CC(c4ccc(F)cc4)C3)nc3c2[S@+]([O-])CC3)C1` [Example 2, Methyl (3R)-3-[[(1R)-5-[3-(4-fluorophenyl)azetidin-1-yl]-1-oxido-2,3-dihydrothieno-[3,2-b]pyridin-7-yl]amino]piperidine-1-carboxylate], the 50% inhibitory concentration (IC50) in assay [1] and in assay [2] was below 10 nM throughout.
As for `COC(=O)N1CCC[C@@H](Nc2cc(N3CC(c4ccccc4)C3)nc3c2[S@+]([O-])CC3)C1` [Example 3], the IC50 in assay [1] and in assay [2] was below 10 nM in each case.
`COC(=O)N1CC[C@H](Nc2cc(N3CC(Oc4ccc(F)cc4)C3)nc3c2[S@+]([O-])CC3)C1` [Example 5, Methyl (3S)-3-[[(1R)-5-[3-(4-fluorophenoxy)azetidin-1-yl]-1-oxido-2,3-dihydrothieno[3,2-b]pyridine-7-yl]amino]pyrrolidine-1-carboxylate]: the IC50 in assay [1] and in assay [2] was 50 to 150 nM each time.
As to `CC(=O)N1CC[C@H](Nc2cc(N3CC(Oc4ccc(F)cc4)C3)nc3c2[S@+]([O-])CC3)C1` [Example 6, 1-[(3S)-3-[[(1R)-5-[3-(4-Fluorophenoxy)azetidin-1-yl]-1-oxido-2,3-dihydrothieno[3,2-b]pyridin-7-yl]amino]pyrrolidin-1-yl]ethanone], the IC50 in assay [1] is below 10 nM; in assay [2], 10 to 50 nM.
For `[O-][S@+]1CCc2nc(N3CC(c4ccccc4)C3)cc(NC3CCOCC3)c21` [Example 7, (1R)-5-(3-Phenylazetidin-1-yl)-7-((tetrahydro-2H-pyran-4-yl)amino)-2,3-dihydrothieno[3,2-b]pyridine-1-oxide] the same measures were 10 to 50 nM and 10 to 50 nM.

One may read the IC50 as the concentration that gives 50% inhibition.
